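Compound exposure: 48 hours, 5 concentrations, 96-well plates. GI50 is the concentration that inhibits growth by half.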 Activity calls are given as the source filed them. Rule as the data show it: active = GI50 up to about 1.1 µM and inactive = higher.
Assays:
Experiment in all cases: growth of human tumour cells (NCI), 48 h
786-0 = system: 786-0
A498 = system: A498
A549 = system: A549
ACHN = system: ACHN
CAKI-1 = system: CAKI-1
CCRF-CEM = system: CCRF-CEM
COLO 205 = system: COLO 205
DLD-1 = system: DLD-1
DMS-273 = system: DMS-273
EKVX = system: EKVX
HCC 2998 = system: HCC 2998
HCT-116 = system: HCT-116
HCT-15 = system: HCT-15
HL-60 = system: HL-60
HOP-18 = system: HOP-18
HOP-62 = system: HOP-62
HOP-92 = system: HOP-92
HT-29 = system: HT-29
IGROV-1 = system: IGROV-1
KM-20L2 = system: KM-20L2
KM12 = system: KM12
LXFL 529 = system: LXFL 529
M14 = system: M14
M19-MEL = system: M19-MEL
MOLT-4 = system: MOLT-4
Malme-3M = system: Malme-3M
NCI-H226 = system: NCI-H226
NCI-H23 = system: NCI-H23
NCI-H460 = system: NCI-H460
NCI-H522 = system: NCI-H522
OVCAR-3 = system: OVCAR-3
OVCAR-4 = system: OVCAR-4
OVCAR-8 = system: OVCAR-8
RXF 393 = system: RXF 393
SF-268 = system: SF-268
SF-295 = system: SF-295
SF-539 = system: SF-539
SK-MEL-28 = system: SK-MEL-28
SK-MEL-2 = system: SK-MEL-2
SK-MEL-5 = system: SK-MEL-5
SK-OV-3 = system: SK-OV-3
SN12C = system: SN12C
SNB-19 = system: SNB-19
SNB-75 = system: SNB-75
SNB-78 = system: SNB-78
SR = system: SR
SW-620 = system: SW-620
TK-10 = system: TK-10
U-251 = system: U-251
UACC-257 = system: UACC-257
UACC-62 = system: UACC-62
UO-31 = system: UO-31
BT-549 = system: BT-549
DU-145 = system: DU-145
Hs-578T = system: Hs-578T
K562 = system: K562
LOX IMVI = system: LOX IMVI
MCF7 = system: MCF7
MDA-MB-231 = system: MDA-MB-231
MDA-MB-435 = system: MDA-MB-435
MDA-N = system: MDA-N
NCI/ADR-RES = system: NCI/ADR-RES
OVCAR-5 = system: OVCAR-5
PC-3 = system: PC-3
RPMI-8226 = system: RPMI-8226
T47D = system: T47D

CCOC(=O)C1=C(Nc2ccc(Br)cc2)OCC1=O
GI50 (786-0): > 100 µM (inactive)
GI50 (A498): > 100 µM (inactive)
GI50 (A549): > 100 µM (inactive)
GI50 (ACHN): > 100 µM (inactive)
GI50 (CAKI-1): > 100 µM (inactive)
GI50 (CCRF-CEM): > 100 µM (inactive)
GI50 (COLO 205): > 100 µM (inactive)
GI50 (DLD-1): > 100 µM (inactive)
GI50 (DMS-273): > 100 µM (inactive)
GI50 (EKVX): > 100 µM (inactive)
GI50 (HCC 2998): > 100 µM (inactive)
GI50 (HCT-116): > 100 µM (inactive)
GI50 (HCT-15): > 100 µM
GI50 (HL-60): 17.9 µM (inactive)
GI50 (HOP-18): > 100 µM (inactive)
GI50 (HOP-62): > 100 µM (inactive)
GI50 (HOP-92): > 100 µM (inactive)
GI50 (HT-29): > 100 µM (inactive)
GI50 (IGROV-1): > 100 µM (inactive)
GI50 (KM-20L2): > 100 µM (inactive)
GI50 (KM12): > 100 µM (inactive)
GI50 (LXFL 529): > 100 µM (inactive)
GI50 (M14): > 100 µM (inactive)
GI50 (M19-MEL): > 100 µM (inactive)
GI50 (MOLT-4): > 100 µM (inactive)
GI50 (Malme-3M): > 100 µM (inactive)
GI50 (NCI-H226): > 100 µM (inactive)
GI50 (NCI-H23): > 100 µM (inactive)
GI50 (NCI-H460): > 100 µM (inactive)
GI50 (NCI-H522): > 100 µM (inactive)
GI50 (OVCAR-3): > 100 µM (inactive)
GI50 (OVCAR-4): > 100 µM (inactive)
GI50 (OVCAR-8): > 100 µM (inactive)
GI50 (RXF 393): > 100 µM (inactive)
GI50 (SF-268): > 100 µM (inactive)
GI50 (SF-295): > 100 µM (inactive)
GI50 (SF-539): > 100 µM (inactive)
GI50 (SK-MEL-28): > 100 µM (inactive)
GI50 (SK-MEL-2): > 100 µM (inactive)
GI50 (SK-MEL-5): > 100 µM (inactive)
GI50 (SK-OV-3): > 100 µM (inactive)
GI50 (SN12C): > 100 µM (inactive)
GI50 (SNB-19): > 100 µM (inactive)
GI50 (SNB-75): > 100 µM (inactive)
GI50 (SNB-78): > 100 µM (inactive)
GI50 (SR): > 100 µM (inactive)
GI50 (SW-620): > 100 µM (inactive)
GI50 (TK-10): > 100 µM (inactive)
GI50 (U-251): > 100 µM (inactive)
GI50 (UACC-257): > 100 µM (inactive)
GI50 (UACC-62): > 100 µM (inactive)
GI50 (UO-31): > 100 µM (inactive)

CCCCCCCC1c2cc3nc(cc4[nH]c(cc5nc(cc([nH]2)[C@@]1(C)CC(=O)N(C)C)C(C)=C5CCC(=O)O)c(CCC(=O)O)c4C)C=C3C (some centres undefined)
GI50 (786-0): 29.5 µM (inactive)
GI50 (A498): 33.3 µM (inactive)
GI50 (A549): 50.2 µM (inactive)
GI50 (ACHN): 18.5 µM (inactive)
GI50 (BT-549): 14.9 µM (inactive)
GI50 (CAKI-1): 39 µM (inactive)
GI50 (CCRF-CEM): 18.8 µM (inactive)
GI50 (COLO 205): 16.7 µM (inactive)
GI50 (DU-145): 21.4 µM (inactive)
GI50 (EKVX): 55.8 µM (inactive)
GI50 (HCC 2998): 20 µM (inactive)
GI50 (HCT-116): 17.1 µM (inactive)
GI50 (HCT-15): 20.3 µM
GI50 (HL-60): 23.7 µM (inactive)
GI50 (HOP-62): 20.5 µM (inactive)
GI50 (HOP-92): 21.2 µM (inactive)
GI50 (HT-29): 18.6 µM (inactive)
GI50 (Hs-578T): 18.7 µM (inactive)
GI50 (IGROV-1): 21 µM (inactive)
GI50 (K562): 21.8 µM (inactive)
GI50 (KM12): 24.9 µM (inactive)
GI50 (LOX IMVI): 17.6 µM (inactive)
GI50 (M14): 14.7 µM (inactive)
GI50 (MCF7): 32.1 µM (inactive)
GI50 (MDA-MB-231): 17 µM (inactive)
GI50 (MDA-MB-435): 30.2 µM (inactive)
GI50 (MDA-N): 31 µM (inactive)
GI50 (Malme-3M): 19.9 µM (inactive)
GI50 (NCI-H23): 18.5 µM (inactive)
GI50 (NCI-H460): 20.8 µM (inactive)
GI50 (NCI-H522): 18.4 µM (inactive)
GI50 (NCI/ADR-RES): 20.4 µM (inactive)
GI50 (OVCAR-3): 17.5 µM (inactive)
GI50 (OVCAR-4): 32.8 µM (inactive)
GI50 (OVCAR-5): 25.5 µM (inactive)
GI50 (PC-3): 23.8 µM (inactive)
GI50 (RPMI-8226): 17.7 µM (inactive)
GI50 (RXF 393): 17.8 µM (inactive)
GI50 (SF-268): 20.8 µM (inactive)
GI50 (SF-295): 18.9 µM (inactive)
GI50 (SF-539): 18.9 µM (inactive)
GI50 (SK-MEL-28): 19.1 µM (inactive)
GI50 (SK-MEL-2): 18.8 µM (inactive)
GI50 (SK-MEL-5): 29.7 µM (inactive)
GI50 (SK-OV-3): 40.6 µM (inactive)
GI50 (SN12C): 30.4 µM (inactive)
GI50 (SNB-19): 20.6 µM (inactive)
GI50 (SNB-75): 18.7 µM (inactive)
GI50 (SR): 19.9 µM (inactive)
GI50 (SW-620): 42.8 µM (inactive)
GI50 (T47D): 34.9 µM (inactive)
GI50 (TK-10): 37.2 µM (inactive)
GI50 (U-251): 18.9 µM (inactive)
GI50 (UACC-257): 17.3 µM (inactive)
GI50 (UACC-62): 18.5 µM (inactive)
GI50 (UO-31): 18.2 µM (inactive)

Clc1cccc(C2SCc3nc4ccccc4n32)c1 (centres undefined)
GI50 (786-0): > 10 µM (inactive)
GI50 (A549): 42.9 µM (inactive)
GI50 (ACHN): 18.4 µM (inactive)
GI50 (CAKI-1): 27 µM (inactive)
GI50 (CCRF-CEM): 27.4 µM (inactive)
GI50 (COLO 205): 4.79 µM (inactive)
GI50 (DLD-1): 15.8 µM (inactive)
GI50 (EKVX): 17.5 µM (inactive)
GI50 (HCT-15): 16.8 µM
GI50 (HL-60): 7.57 µM (inactive)
GI50 (HOP-18): 18.5 µM (inactive)
GI50 (HOP-62): 20 µM (inactive)
GI50 (HOP-92): 11.5 µM (inactive)
GI50 (HT-29): 23.7 µM (inactive)
GI50 (IGROV-1): 22.3 µM (inactive)
GI50 (K562): 14.9 µM (inactive)
GI50 (KM12): 18.8 µM (inactive)
GI50 (LOX IMVI): 15.2 µM (inactive)
GI50 (LXFL 529): 19.9 µM (inactive)
GI50 (M14): 19.7 µM (inactive)
GI50 (M19-MEL): 19.4 µM (inactive)
GI50 (MOLT-4): 23.1 µM (inactive)
GI50 (Malme-3M): 22 µM (inactive)
GI50 (NCI-H226): 12.8 µM (inactive)
GI50 (NCI-H23): 18.3 µM (inactive)
GI50 (NCI-H460): 27.8 µM (inactive)
GI50 (NCI-H522): 10.4 µM (inactive)
GI50 (OVCAR-3): 14.4 µM (inactive)
GI50 (OVCAR-4): 27 µM (inactive)
GI50 (OVCAR-5): 15 µM (inactive)
GI50 (OVCAR-8): 24.8 µM (inactive)
GI50 (RPMI-8226): 14.2 µM (inactive)
GI50 (RXF 393): 15 µM (inactive)
GI50 (SF-268): 28.8 µM (inactive)
GI50 (SF-295): 30.3 µM (inactive)
GI50 (SF-539): 21.1 µM (inactive)
GI50 (SK-MEL-28): 19.1 µM (inactive)
GI50 (SK-OV-3): 21.6 µM (inactive)
GI50 (SN12C): 13.8 µM (inactive)
GI50 (SNB-75): 3.52 µM (inactive)
GI50 (SNB-78): 22.1 µM (inactive)
GI50 (SR): 16.3 µM (inactive)
GI50 (SW-620): 32.9 µM (inactive)
GI50 (TK-10): 25.6 µM (inactive)
GI50 (U-251): 16 µM (inactive)
GI50 (UACC-62): 13.8 µM (inactive)

— ChEMBL document CHEMBL1201862, “PubChem BioAssay data set” (2004)
